The nature of data set [1]: Hydrogel formation from laminin derived peptides. The settings on record: 1 mg peptide in 200 μL 20 mM phosphate buffer pH 7.4, NaCl 50 mM to 150 mM, 24 hours. The data set is classed as physicochemical. As for the experimental part: As an example of hydrogels based on self-aggregating peptides derived from non-amyloid proteins, laminin hydrogels were generated. Laminin was analyzed in silico to identify self-aggregating regions. After identification of such a region in the protein, its sequence was further modified to facilitate peptide self-assembly, and subsequently cross-beta sheet formation. Three peptides, L1-L3, were designed. The peptides were synthesized by a commercial vendor with 99% purity.
For forming the hydrogels, 1 mg peptide was mixed with 180 μL of 20 mM phosphate buffer, pH 7.4. The pH of this solution was raised to 10 by the gradual addition of 2N NaOH. NaCl was added to this solution in different quantities with a range from 50 mM to 150 mM final concentration. The pH of the solution was finally adjusted to 7.4 and the final volume of the solution was 200 μL. The solution was left undisturbed for 24 hours to facilitate the hydrogel formation.

In a further data set the test system is SHSY5Y cells. Description: in vitro. The data set is classed as cell-based. The settings on record: incubated for 24 hours; FIG. 10. As to the method: (§1) To determine the viability of cells within the hydrogels formed by L1 and L3, a Calcein-AM based toxicity assay was carried out. SHSY5Y cells were used for the toxicity assay. Cells were cultured in complete DMEM with 10% FBS, 1× Glutamax and 1% pen-strep antibiotic cocktail in a humidified incubator at 37° C. with 5% CO2. Cells cultured at 80% confluency in the culture vessel were used for the assay. SHSY5Y cells were washed with phosphate-buffered saline and treated with Accutase® to lift them of the culture vessel. Subsequently, it was neutralized with a double amount of complete media and centrifuged at 300 rpm for 5 minutes to obtain a cell pellet. Around 10,000 live cells (counted on a hemocytometer by Trypan blue exclusion) were added to 20 μL of each hydrogel and plated in a well of a 96 well polystyrene TC plate (with technical replicate=3). After 20 minutes, 100 μL complete media was added to each well. For control, a similar number of cells were added to a well without the hydrogel. 20 μL of phosphate buffer was added to each of the control wells. Cells were cultured for 24 hours before performing the Calcein-AM assay. Calcein-AM assay was carried out according to manufacturer's protocol. The viable cells were imaged with a wide-field fluorescence microscope and quantified.

The nature of another data set: in vitro. The data set is classed as cell-based. To be noted: human. As to the method:
as §1

Peptide text beside a SMILES is read from it.

For `CC(C)C[C@H](NC(=O)[C@H](Cc1ccc(O)cc1)NC(=O)[C@H](Cc1ccccc1)NC(=O)[C@H](CC(C)C)NC(=O)[C@H](CC(C)C)NC(=O)OCC1c2ccccc2-c2ccccc21)C(=O)O` [L1] (HELM PEPTIDE1{[O=C(OCC1c2ccccc2-c2ccccc21)[*:2]].L.L.F.Y.L}$$$$V2.0; C-terminus assumed), the hydrogel formation entry in data set [1] is recorded as “formed hydrogels”. Moreover, the “viability of SHSY5Y cells relative to control (in words)” value in the data set with SHSY5Y cells is reported as “high viability”. Also, in the data set “in vitro”, the viability (as a rule, the share of living cells, or the viability signal relative to a control) at 24 h was 85%.

Regarding `CC(C)C[C@H](NC(=O)[C@H](Cc1ccc(O)cc1)NC(=O)[C@@H](NC(=O)[C@H](CC(C)C)NC(=O)[C@H](CC(C)C)NC(=O)OCC1c2ccccc2-c2ccccc21)C(C)C)C(=O)O` [L3] (HELM PEPTIDE1{[O=C(OCC1c2ccccc2-c2ccccc21)[*:2]].L.L.V.Y.L}$$$$V2.0; C-terminus assumed), the hydrogel formation result in data set [1] is “formed hydrogels”. The “viability of SHSY5Y cells relative to control (in words)” value in the data set with SHSY5Y cells is listed as “high viability”. In the data set “in vitro”, this compound came in with a viability at 24 h of 87%.

For the origin of these results see patent publication US20220088275A1, “HYDROGELS, METHODS OF MAKING, AND METHODS OF USE” (Convalesce Inc., priority 2019, published 2022).
